Laboratory results as given in patent publication US4065570A (priority 1975, dated 1977).
Read-outs that look alike come from different tables or passages of the source.

Key:
Polio I = test: organism not typed; type: cell-based; settings: Vero
Echo 11 = type: cell-based; settings: Echo 11, Primary Monkey Kidney Cells, 178 TCID50
Description: (§1) In preparing the compounds for testing, they were handled aseptically throughout. The compounds were dissolved in a minimum amount of a suitable solvent, and the final dilutions were made up to the required volume in a complete culture medium in a concentration not exceeding the predetermined maximum non-cytotoxic levels.
(§2) The cell cultures used in all primary in vitro antipicorna virus screening tests were an established cell line of the African green monkey kidney (VERO), a primary cell culture of the Cercopythecus monkey kidney, or human embryonic lung diploid cells WI-38.
(§3) Standard batches of the viruses were made by growing the virus in an appropriate cell culture and then making a pool which was dispersed in ampoules and kept frozen at -76° C until used. The titer of each virus was determined in the cell cultures used.
(§4) The cells were grown in test tubes in a suitable medium. Immediately before use the initial medium was replaced with the one which contained the test compound in an appropriate concentration. After the virus was added, the infected culture was incubated at 37° C for a number of days and the cytopathic effect of the virus observed and recorded. The results were read every day in all of the tubes and the destruction of cells assessed in precentage of the cell sheet destroyed: 0-25-50-75-100%. As controls, cells with only virus (for cytopathic effect) or with only the compound (for cytotoxic effect) were used as well as the normal, uninfected cells (no cytotoxic -- no cytopathic effects).
(§5) Net difference in cytopathic effect between treated and control tubes expressed in percentage give the extent of the inhibitory activity of the substance.
(§6) The TCID50 represents the tissue culture infective dose of virus that will destroy 50% of the cells.

Echo 9 = type: cell-based; settings: Echo 9, Vero, 31.6 TCID50
Description: as §1, §2, §3, §4, §5, §6

Vero cells = test: cytotoxicity against Vero cells; type: cell-based, African green monkey; settings: for Toxicity (%): Vero
Description: as §1, §2
(§7) The cytotoxic stuides were performed on each of the compounds to determine the level of response of the cells used to the potentially toxic action of the substances.
as §4

[1] = tested on: primary monkey kidney cells; test: cytotoxicity against primary monkey kidney cells; type: cell-based, Cercopythecus monkey; settings: for Toxicity (%): pMK
Description: as §1, §2, §7, §4

mice = test: LD50 in mice; type: in vivo
[2] = tested on: Mahoney strain of Polio virus; type: in vivo, Cynomolgus monkey
[3] = tested on: viruses of the Picorna group; test: antiviral activity (general statements); type: cell-based; settings: result in words
Description: The in vitro activity of representative compounds of the present invention are set forth below.
as §1, §2, §4, §5

Cynomolgus monkeys = settings: cynomolgus monkey, in vivo, 25 mg/kg/day
[4] = Virus + Substance, 25 mg/kg/day, i.p. or s.c.
[5] = Virus + Substance, 25 mg/kg/day, 4th Day
[6] = Virus + Substance, 25 mg/kg/day, 8th Day
[7] = Virus + Substance, 25 mg/kg/day, 11th Day
[8] = Virus + Substance, 25 mg/kg/day, 15th Day

Acetylated 5-(3',4',-Dimethoxybenzal) hydantoin [Example 14]
% Inhibition (Polio I; 316 TCID50, 0.5 μg/ml): 93% | % Inhibition (Polio I; 316 TCID50, 1 μg/ml): 100% | % Inhibition (Polio I; 316 TCID50, 5 μg/ml): 100% | % Inhibition (Polio I; 316 TCID50, 10 μg/ml): 100% | % Inhibition (Echo 11; 0.1 μg/ml): 7% | % Inhibition (Echo 11; 0.3 μg/ml): 32% | % Inhibition (Echo 11; 0.7 μg/ml): 32% | % Inhibition (Echo 11; 1.0 μg/ml): 68% | % Inhibition (Echo 11; 3.3 μg/ml): 100% | % Inhibition (Echo 11; 6.7 μg/ml): 100% | % Inhibition (Echo 11; 10 μg/ml): 100% | % Inhibition (Echo 11; 25 μg/ml): 100% | % Inhibition (Echo 11; 50 μg/ml): 100% | % Inhibition (Echo 11; 100 μg/ml): 100% | % Inhibition (Echo 9; 0.1 μg/ml): 8% | % Inhibition (Echo 9; 0.3 μg/ml): 29% | % Inhibition (Echo 9; 0.7 μg/ml): 42% | % Inhibition (Echo 9; 1.0 μg/ml): 71% | % Inhibition (Echo 9; 3.3 μg/ml): 92% | % Inhibition (Echo 9; 6.7 μg/ml): 100% | % Inhibition (Echo 9; 10.0 μg/ml): 100% | Cytotoxicity CTD50 (Vero cells; Vero cells, 50% inhibition of the cell growth): > 100 µg/mL | Cytotoxicity CTD0 (Vero cells; Vero cells, maximal non-toxic concentration): > 10 µg/mL | Toxicity (%) (Vero cells; 0.1 micrograms/ml): 0% | Toxicity (%) (Vero cells; 0.3 micrograms/ml): 0% | Toxicity (%) (Vero cells; 0.7 micrograms/ml): 0% | Toxicity (%) (Vero cells; 1.0 micrograms/ml): 0% | Toxicity (%) (Vero cells; 3.3 micrograms/ml): 0% | Toxicity (%) (Vero cells; 6.7 micrograms/ml): 0% | Toxicity (%) (Vero cells; 10 micrograms/ml): 10% | Toxicity (%) (Vero cells; 25 micrograms/ml): 10% | Toxicity (%) (Vero cells; 33.3 micrograms/ml): 10% | Toxicity (%) (Vero cells; 50 micrograms/ml): 10% | Toxicity (%) (Vero cells; 66.7 micrograms/ml): 10% | Toxicity (%) (Vero cells; 75 micrograms/ml): 10% | Toxicity (%) (Vero cells; 100 micrograms/ml): 10% | Toxicity (%) (Vero cells; 150 micrograms/ml): 10% | Toxicity (%) (Vero cells; 200 micrograms/ml): 25% | Toxicity (%) (Vero cells; 250 micrograms/ml): 75% | Toxicity (%) (Vero cells; 300 micrograms/ml): 100% | Cytotoxicity CTD50 ([1]; Primary Monkey Kidney Cells, 50% inhibition of the cell growth): > 100 µg/mL | Cytotoxicity CTD0 ([1]; Primary Monkey Kidney Cells, maximal non-toxic concentration): > 100 µg/mL | Toxicity (%) ([1]; 0.1 micrograms/ml): 0% | Toxicity (%) ([1]; 0.3 micrograms/ml): 0% | Toxicity (%) ([1]; 0.7 micrograms/ml): 0% | Toxicity (%) ([1]; 1.0 micrograms/ml): 0% | Toxicity (%) ([1]; 3.3 micrograms/ml): 0% | Toxicity (%) ([1]; 6.7 micrograms/ml): 0% | Toxicity (%) ([1]; 10 micrograms/ml): 0% | Toxicity (%) ([1]; 25 micrograms/ml): 0% | Toxicity (%) ([1]; 33.3 micrograms/ml): 0% | Toxicity (%) ([1]; 50 micrograms/ml): 0% | Toxicity (%) ([1]; 66.7 micrograms/ml): 0% | Toxicity (%) ([1]; 75 micrograms/ml): 0% | Toxicity (%) ([1]; 100 micrograms/ml): 0% | Toxicity (%) ([1]; 150 micrograms/ml): 10% | Toxicity (%) ([1]; 200 micrograms/ml): 75% | Toxicity (%) ([1]; 250 micrograms/ml): 100% | Toxicity (%) ([1]; 300 micrograms/ml): 100% | subacute LD50 (mice; intraperitoneal, daily injection during 16 days): 400 to 500 mg/kg | LD50 (mice; oral administration): greater than 1,300 mg/kg | effectiveness against the Mahoney Polio virus strain in the infected animals ([2]; Cynomolgus monkeys, result in words): effective against the Mahoney Polio virus strain in the infected animals | Average Day of Paralysis [2, 4]: 13.5 | Cumulative morbidity, paralyses, % [2, 4]: 25.0% | Cumulative morbidity, paralyses, No. [2, 4]: 2/8 | Histopathological changes as brain, % [2, 4]: 20.0% | Histopathological changes as brain, No. [2, 4]: 2/10 | Presence of poliovirus in rectal, % [2, 5]: 36.4% | Presence of poliovirus in rectal, No. [2, 5]: 4/11 | Presence of poliovirus in rectal, % [2, 6]: 25.0% | Presence of poliovirus in rectal, No. [2, 6]: 2/8 | Presence of poliovirus in rectal, % [2, 7]: 25.0% | Presence of poliovirus in rectal, No. [2, 7]: 2/8 | Presence of poliovirus in rectal, % [2, 8]: 16.7% | Presence of poliovirus in rectal, No. [2, 8]: 1/6 | degree of antiviral activity [3]: greater degree of antiviral activity than the unacetylated compound | Cumulative morbidity, paralyses, % (Cynomolgus monkeys): 0% | Cumulative morbidity, paralyses, No. (Cynomolgus monkeys): 0/5 | Histopathological changes as brain, % (Cynomolgus monkeys): 0% | Histopathological changes as brain, No. (Cynomolgus monkeys): 0/5
